Source: patent US11319289B2, “5-hydroxy pyridine-based compound for use as P2X1 and P2X3 receptor antagonist and pharmaceutical composition comprising same” (GWANGJU INSTITUTE OF SCIENCE AND TECHNOLOGY, priority 2017, dated 2022)

What was measured:
Type in all cases: cell-based
[1] = biological target: T1, mouse P2X1 receptor (mP2X1) (Mus musculus, UniProt P51576); assay: Two-electrode voltage clamp assay, recombinant mP2X1 receptor in Xenopus oocytes; settings: 10 μM compound, 2 μM ATP, mean±SEM n≥3 (footnote c); for inhibition at 10 µM: read-out: mP2X1 % inhibitory effect at 10 μM
T1 construct: expressed in transfected cells; host or cells: Xenopus oocytes (cRNA microinjection)
T1 sequence (P51576 1-399): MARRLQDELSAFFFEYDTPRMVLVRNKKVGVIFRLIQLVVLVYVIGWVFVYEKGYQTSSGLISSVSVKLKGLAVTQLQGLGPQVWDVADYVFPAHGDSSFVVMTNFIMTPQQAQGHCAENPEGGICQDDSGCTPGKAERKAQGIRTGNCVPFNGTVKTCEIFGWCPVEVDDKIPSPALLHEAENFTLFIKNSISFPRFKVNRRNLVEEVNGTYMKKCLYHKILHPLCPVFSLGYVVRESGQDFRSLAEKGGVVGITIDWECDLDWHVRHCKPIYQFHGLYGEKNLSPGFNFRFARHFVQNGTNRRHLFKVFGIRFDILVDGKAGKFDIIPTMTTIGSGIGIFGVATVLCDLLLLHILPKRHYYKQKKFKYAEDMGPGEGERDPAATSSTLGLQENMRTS
Description: (§1) 1-1. Two-Electrode Voltage Clamp Assay for Recombinant mP2X1 and hP2X3 Receptors
(§2) Xenopus oocytes were isolated and incubated with 270 U/mg of collagenase at 23 to 24° C. for 1.5 hours. Defolliculated oocytes were kept in Barth's solution at 18° C. After 1 day, the defolliculated oocytes were each microinjected cytosolically with mP2X1 and human P2X3 receptor cRNA ([…], 1 μg/mL), incubated for 24 hours at 18° C. in Barth's solution. The cRNA-injected oocytes were kept for 12 days at 4° C. ATP-activated membrane currents (Vh=−70 mV) were recorded from the cRNA-injected oocytes using the two-electrode voltage clamp technique (Axoclamp 2B amplifier). Voltage recording ([…] tip resistance) and current-recording microelectrodes (5 MΩ tip resistance) were filled with 3.0 M KCl. Oocytes were placed in an electrophysiological chamber continuously superfused with Ringer's solution (5 mL/min, at 18° C.) containing 110 mM NaCl, 2.5 mM KCl, 5 mM HEPES and 1.8 mM BaCl2, with pH adjusted to 7.5. To induce an evoked current, 2 μM ATP was superfused for 60 to 120 seconds and then washed for 20 min. For data analysis, the ATP-evoked current was normalized at pH 7.5. The compounds were introduced to the fixed oocytes 20 minutes prior to ATP exposure in the electrophysiological chamber. IC50 values (the concentration of the compound required to inhibit the ATP response by 50%) were determined by Hill plots designed using the Chemical Formula: log(I/Imax−1), where I is the current evoked by ATP in the presence of an antagonist. Data are presented as mean±SEM (n≥3) from different batches of oocytes.
(§3) In order to investigate the structure-activity relationship (SAR) of the compounds synthesized in the present invention, the antagonistic activity was evaluated by a two-electrode voltage clamp (TEVC) assay in Xenopus oocytes expressing the recombinant mP2X1 or hP2X3, respectively. The hP2X7R antagonistic activity was assessed using an ethidium ion accumulation assay in human HEK293 cells stably expressing the recombinant human P2X7R.

[2] = biological target: T2, human P2X3 receptor (hP2X3) (Homo sapiens, UniProt P56373); assay: Two-electrode voltage clamp assay, recombinant hP2X3 receptor in Xenopus oocytes; settings: Xenopus oocytes; for inhibition at 1 µM: 1 μM compound, 2 μM ATP, mean±SEM n≥3 (footnote b), read-out: hP2X3 % inhibitory effect at 1 μM; for IC50: 2 μM ATP-evoked current, mean±SEM n≥3 (footnote d)
T2 construct: expressed in transfected cells; host or cells: Xenopus oocytes (cRNA microinjection)
T2 sequence (P56373 1-397): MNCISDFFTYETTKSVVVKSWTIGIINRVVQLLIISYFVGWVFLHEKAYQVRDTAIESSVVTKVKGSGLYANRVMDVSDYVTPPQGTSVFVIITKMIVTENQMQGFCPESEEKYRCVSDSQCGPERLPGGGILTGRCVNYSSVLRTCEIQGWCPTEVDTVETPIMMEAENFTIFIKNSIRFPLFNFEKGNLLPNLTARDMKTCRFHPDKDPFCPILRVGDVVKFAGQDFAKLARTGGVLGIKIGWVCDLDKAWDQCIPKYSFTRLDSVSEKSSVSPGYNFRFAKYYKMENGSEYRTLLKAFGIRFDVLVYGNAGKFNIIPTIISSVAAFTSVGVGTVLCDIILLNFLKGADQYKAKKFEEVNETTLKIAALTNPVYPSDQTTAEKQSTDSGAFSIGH
Description: as §1, §2, §3

[3] = biological target: T3, human P2X7 receptor (hP2X7) (Homo sapiens, UniProt Q99572); assay: Ethidium bromide accumulation assay in hP2X7-expressing HEK293 cells; settings: 10 μM compound with BzATP
T3 construct: expressed in transfected cells
T3 sequence (Q99572 1-595): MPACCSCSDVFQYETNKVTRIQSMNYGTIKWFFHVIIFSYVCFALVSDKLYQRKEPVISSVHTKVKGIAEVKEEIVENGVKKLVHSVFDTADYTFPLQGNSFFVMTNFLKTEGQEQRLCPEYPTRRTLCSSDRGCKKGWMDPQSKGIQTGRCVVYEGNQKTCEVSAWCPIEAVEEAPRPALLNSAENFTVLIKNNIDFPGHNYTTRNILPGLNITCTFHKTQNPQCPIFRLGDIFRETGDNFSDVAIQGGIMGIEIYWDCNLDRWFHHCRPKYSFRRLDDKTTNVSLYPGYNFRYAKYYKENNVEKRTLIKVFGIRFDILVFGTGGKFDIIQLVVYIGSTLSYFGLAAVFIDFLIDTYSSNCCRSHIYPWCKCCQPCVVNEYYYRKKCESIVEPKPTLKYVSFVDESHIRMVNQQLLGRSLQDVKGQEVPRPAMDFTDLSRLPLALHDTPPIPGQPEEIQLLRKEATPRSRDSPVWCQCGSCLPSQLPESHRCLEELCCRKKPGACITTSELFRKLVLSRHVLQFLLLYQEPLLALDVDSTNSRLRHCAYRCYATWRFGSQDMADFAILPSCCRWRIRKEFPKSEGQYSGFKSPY
Description: 1-2. Ethidium Bromide Accumulation Assay in hP2X-Expressing HEK293 Cells
HEK293 cells that are stably transfected with the human P2X7 receptor (P2X7R) were kept under a humidified atmosphere of 5% CO2 at 37° C. in DMEM supplemented with 10% (v/v) FBS, 2 mM L-glutamine and antibiotics (50 U/mL penicillin and 50 μg/ml streptomycin). BzATP-induced pore formation was measured using a fluorescence plate reader by measuring cellular absorption of ethidium in the hP2X7-expressing HEK293 cells. The hP2X7-expressing HEK293 cells were washed once with an appropriate assay buffer, and the buffer was also removed before subsequent analysis. All studies were performed at room temperature and the final assay volume was 100 μL. The cells were resuspended at 2.5×10^6 cells/mL in assay buffers consisting of 10 mM HEPES, 5 mM N-methyl-D-glucamine, 5.6 mM KCl, 10 mM D-glucose and 0.5 mM CaCl2 (pH 7.4) and supplemented with 280 mM sucrose or 140 mM NaCl.
In order to determine the antagonistic activity of the 5-hydroxyl-pyridine derivatives of the present invention and the reference compound (AZD9056), these compounds were added to the cells at a concentration of 10 μM with BzATP without pre-incubation. The cells were incubated for 2 hours under a humidified atmosphere of 5% CO2 at 37° C., and the absorption of ethidium dye was observed by measuring fluorescence with a Bio-Tek instrument FL600 fluorescent plate reader (excitation wavelength of 530 nm and emission wavelength of 590 nm). The results are expressed as a percentage relative to the maximum cumulative amount of ethidium bromide when stimulated with BzATP alone.
as §3

Row | mP2X1 % inhibitory effect at 10 μM [1] | inhibition at 1 µM [2] [%] | hP2X7 % inhibition of ethidium bromide accumulation [3] | inhibition at 10 µM [1] [%] | IC50 [2] [µM] | Structure (SMILES)
1 | inactive^c | < 50 | inactive |  |  | CCCc1nc(Cc2cccc(Oc3ccccc3)c2)c(C)c(C#N)c1O [Compound 38, 3-Hydroxy-5-methyl-6-(3-phenoxybenzyl)-2-propylisonicotinonitrile]
2 |  |  | Inactive | 27.5 ± 4.5 | 0.301 | CCCc1nc(Cc2cccc(Oc3ccccc3)c2)c(C(=O)O)c(C(=O)O)c1O [Compound 27, 5-Hydroxy-2-(3-phenoxybenzyl)-6-propylpyridine-3,4-dicarboxylic acid]
3 |  | < 50 | inactive | 43.1 ± 12.9 |  | CCCc1nc(Cc2cccc(Oc3ccccc3)c2)c(C)c(CNS(C)(=O)=O)c1O [Compound 43, N-((3-Hydroxy-5-methyl-6-(3-phenoxybenzyl)-2-propylpyridin-4-yl)methyl)methanesulfonamide]
4 | Inactive^c | 33.3 | Inactive |  |  | COc1ccc(CCc2nc(C)c(O)c(C#N)c2C(=O)O)cc1 [Compound 16, 4-Cyano-5-hydroxy-2-(4-methoxyphenethyl)-6-methylnicotinic acid]
5 | Inactive^c |  | Inactive |  | 0.751 ± 0.083 | COc1ccc(CCc2nc(Cc3ccccc3)c(O)c(C(=O)O)c2C(=O)O)cc1 [Compound 13h, 6-Benzyl-5-hydroxy-2-(4-methoxyphenethyl)pyridine-3,4-dicarboxylic acid]
6 |  | 27.8 | inactive | 25.3 |  | COc1ccc(CCc2nc(C)c(O)c3c2C(=O)OC3=O)cc1 [Compound 18, 7-Hydroxy-4-(4-methoxyphenethyl)-6-methylfuro[3,4-c]pyridine-1,3-dione]
7 | Inactive^c | 16.3 | inactive |  |  | COc1ccc(CCc2nc(C)c(O)c3c(=O)[nH][nH]c(=O)c23)cc1 [Compound 19, 8-Hydroxy-5-(4-methoxyphenethyl)-7-methyl-2,3-dihydropyrido[3,4-d]pyridazine-1,4-dione]
8 | Inactive^c |  | inactive |  | 0.709 | CCCc1nc(CCc2ccc(OC)cc2)c(C)c(C(N)=O)c1O [Compound 23, 5-Hydroxy-2-[2-(4-methoxyphenyl)ethyl]-3-methyl-6-propyl-pyridine-4-carboxamide]
9 |  |  | inactive | 48.1 ± 8.8 | 0.55 ± 0.093 | CCc1nc(CCc2ccc(OC)cc2)c(C(=O)O)c(C(=O)O)c1O [Compound 13c, 6-Ethyl-5-hydroxy-2-(4-methoxyphenethyl)pyridine-3,4-dicarboxylic acid]
10 |  |  | Inactive | 22.7 | 0.303 | CCCc1nc(CCc2ccc(OC)cc2)c(C)c(C(=O)O)c1O [Compound 22c, 3-Hydroxy-6-(4-methoxyphenethyl)-5-methyl-2-propylisonicotinic acid]
11 | inactive^c | 20.4 | inactive |  |  | COc1ccc(CCc2cc(S(C)(=O)=O)c(O)c(C)n2)cc1 [Compound 20, 6-(4-Methoxyphenethyl)-2-methyl-4-(methylsulfonyl)pyridin-3-ol]
12 | Inactive^c |  | Inactive |  | 0.721 ± 0.096 | COc1ccc(CCc2nc(CCS(C)(=O)=O)c(O)c(C(=O)O)c2C(=O)O)cc1 [Compound 13l, 5-Hydroxy-2-(4-methoxyphenethyl)-6-(2-(methylsulfonyl)ethyl)pyridine-3,4-dicarboxylic acid]
